Results as given in patent US20120122870A1, “Treatment Of Ischemia-Reperfusion Injury” (MUSC FOUNDATION FOR RESEARCH DEVELOPMENT, priority 2009, published 2012).
“Also recorded” adds a separate entry of the source.

Tests used:
[1] = tested on: severe kidney ischemia-reperfusion in mice; assay: Ischemia-reperfusion of the kidney (severe model), survival, BUN and creatinine; format: in vivo
Method: ABC294640 promotes survival in a severe model of kidney damage. To evaluate the protective effects of ABC294640 in a more severe IR model, mice were treated with ABC294640 (50 mg/kg in 0.1 mL by oral gavage) or vehicle (0.1 ml in 0.375% Tween-80 in PBS), and then the right kidney was ligated and removed and the left kidney pedicle was clamped for 45 min before reperfusion. Animals were assessed daily for postoperative health, including scoring for weight loss, activity and appearance. Following severe IR, vehicle-treated mice consistently died or were sacrificed because of severe ill health on post-surgery Day 2 (FIG. 3). In marked contrast, mice that received 50 mg/kg ABC294640 preoperatively all survived the IR insult.
ABC294640 protects against renal failure in a severe model of kidney damage. Blood was drawn from the severe IR mice at sacrifice, and levels of blood urea nitrogen (BUN) and creatinine were determined as indicators of renal function (FIG. 4). As expected, serum creatinine and BUN levels were highly elevated in the vehicle-treated IR animals (clear bars) compared with sham animals (hatched bars), indicative of post-surgical renal failure.
Ischemia-reperfusion of the kidney (severe model): The irreversible model was performed in a similar manner to the reversible model described above with the exception that the right kidney pedicle was tied off and the kidney removed and the left kidney was clamped for 45 minutes.

[2] = tested on: neutrophil influx into the kidney (MPO activity); assay: Kidney myeloperoxidase (MPO) activity after severe kidney IR; format: in vivo, mice; conditions: 50 mg/kg
Method: Myeloperoxidase (MPO) activity, which is reflective of neutrophil influx into the tissue, is often used as measure of local inflammation, and was assayed in the kidneys of the mice from FIG. 4. […] Therefore, the level of kidney MPO and expected inflammatory damage in vehicle-treated animals correlates with the observed reduction in renal function.

[3] = tested on: hepatic apoptosis after warm IR; assay: TUNEL apoptosis in liver after hepatic warm IR; format: in vivo, mice; conditions: 1 h-ischemia plus 6 h-reperfusion
Method: ABC294640 prevents hepatic warm IR-induced cell death. SK increased after hepatic IR, therefore, we investigated whether ABC294640 protects against hepatic IR injury. […] Necrotic areas became panlobular after 1 h-ischemia plus 6 h of reperfusion (FIG. 10, middle). Necrotic area, quantified by computerized image analysis of 10 random fields per slide, accounted for 68% of the liver tissue (FIG. 11A). After ABC294640 treatment, necrosis was decreased to 7%, which represents an almost 90% attenuation as compared to the vehicle-treated livers (FIG. 11A). Hepatic apoptosis was evaluated by terminal deoxylnucleotidyl transferase-mediated deoxyuridine triphosphate biotin nick end labeling (TUNEL) (FIG. 11B). TUNEL-positive cells were rare in livers from sham-operated mice (0.13 cells/high power field (hpf)). TUNEL staining increased slightly to 2 cells/hpf after 1 h-ischemia plus 6 h-reperfusion (FIG. 11B). […] The TUNEL assay was performed to assess apoptosis using an In Situ Cell Death Detection Kit (Roche Diagnostics Corp., Indianapolis, Ind.). TUNEL-positive and negative cells were counted in 10 randomly selected fields using a 40× objective lens. Apoptosis was verified morphologically by identifying condensed and fragmented nuclei in 10 randomly selected fields in H+E slides ([…] et al. 1995).

[4] = tested on: phosphorylated p65 subunit of NF-κB; assay: Phosphorylated p65 NF-κB immunoblot after hepatic warm IR; format: in vivo, mice; conditions: livers harvested 2 h after IR
Method: ABC294640 prevents hepatic warm IR-induced tumor necrosis factor-α (TNFα) formation and NF-κB activation. Toxic cytokine formation and inflammatory processes play important roles in IR injury, and S1P is well known to promote inflammation. Accordingly, we investigated whether ABC294640 affects the expression of the pro-inflammatory cytokine TNFα after IR. Livers were harvested at 2 h after reperfusion and TNFα mRNA was detected by quantitative real time PCR. TNFα mRNA increased ˜10-fold after IR (FIG. 15, upper). ABC294640 blunted this increase in TNFα mRNA by ˜50%. NF-κB activation is involved in inflammatory cytokine formation and upregulation of adhesion molecules. After IR, phosphorylation of p65 subunit of NF-κB increased markedly, indicating NF-κB activation. This effect was also blunted by ABC294640 (FIG. 15 lower) which is consistent with our previous studies of NF-κB activation. Western blotting: Briefly, liver tissue was homogenized in a 0.1% Triton-X100 buffer containing a protease inhibitor cocktail, and the extract was centrifuged at 12,000×g for 10 min at 4° C. […] Expression of the protein of interest was quantified by the density of Western blot images by densitometry and standardized by house keeping gene actin.

hepatic warm IR in mice [5] = assay: Serum ALT and total bilirubin after hepatic warm IR; format: in vivo
Method: Liver warm ischemia was induced as described above. Blood was collected at 6 h after reperfusion, and serum alanine aminotransferase (ALT) activity and bilirubin were measured. Before ischemia, serum ALT levels were 22 U/L. At 6 h after reperfusion, ALT levels increased to ˜19,000 U/L in livers exposed to 1 h-ischemia (FIG. 12A). Pretreatment of the animals with ABC294640 decreased ALT levels after IR to ˜1,600 U/L, which reflects a >90% decrease compared to livers without ABC294640 treatment (FIG. 12A). […] Bilirubin accumulates in the blood when liver function is poor. Serum total bilirubin was 0.26 mg/dL in mice subjected to the sham operation. Bilirubin increased 3-fold 6 h after reperfusion (FIG. 12B). […] Clinical chemistry: Blood samples were collected from the vena cava at various times, and ALT and bilirubin were measured enzymatically using analytic kits from Pointe Scientific.

hepatic warm IR in mice [6] = assay: Survival after hepatic warm IR with removal of non-ischemic lobes; format: in vivo; conditions: 1 h-ischemia, non-ischemic lobes removed, observed 7 days
From the text: To evaluate the effects of ABC294640 on survival of mice after IR, the non-ischemic liver lobes were removed after the vascular clamp was opened and mice were observed 7 days for survival. This procedure mimics total LT.

[7] = severe kidney IR, 48 hr (2 days) post-surgery
[8] = severe kidney IR, post-surgery Day 10

O=C(NCc1ccncc1)C12CC3CC(C1)CC(c1ccc(Cl)cc1)(C3)C2 [ABC294640, 3-(4-chlorophenyl)-N-(pyridin-4-ylmethyl)adamantane-1-carboxamide]
survival after severe kidney IR ([1]; 50 mg/kg oral gavage preoperatively, right kidney removed, left pedicle clamped 45 min): all survived | survival time after severe kidney IR ([1]; 50 mg/kg oral gavage, right kidney removed, left kidney clamped 45 minutes): at least 9 days | postoperative health at sacrifice ([1]; severe kidney IR, 50 mg/kg, post-surgery Day 9, 50 mg/kg): in good health; also recorded: appeared robust and were gaining weight | BUN vs vehicle [1, 7]: significantly reduced | serum creatinine vs vehicle [1, 7]: significantly reduced | BUN [1, 8]: returned to normal; also recorded: returning to normal | serum creatinine [1, 8]: returned to normal; also recorded: returning to normal | increase in kidney MPO activity (neutrophil infiltration) [2]: reduces neutrophil infiltration; also recorded: completely blocked | increase of TUNEL-positive cells [3]: partially blocked | phosphorylation of p65 subunit of NF-κB (NF-κB activation) [4]: blunts | liver function / hepatic IR injury (in words) (hepatic warm IR in mice [5]; 1 h-ischemia plus 6 h-reperfusion): markedly decreases hepatic IR injury; also recorded: improves liver function | decrease of ALT compared to livers without treatment (hepatic warm IR in mice [5]; 1 h-ischemia, 6 h after reperfusion): > 90% | accumulation of serum total bilirubin (hepatic warm IR in mice [5]; 6 h after reperfusion): almost completely reversed | serum ALT levels after IR (hepatic warm IR in mice [5]; pretreatment 50 mg/kg, 1 h-ischemia, 6 h after reperfusion): ~1,600 U/L | survival / acute liver failure after IR (in words) (hepatic warm IR in mice [6]): significantly different; also recorded: completely prevented acute liver failure | survival after IR (hepatic warm IR in mice [6]; pretreated mice): 100%
